What all share (type): cell-based
The subject of test [1] is Pasteurella multocida PM 6267 (P 2225 (L386), reference strain, mouse infection strain). Briefly: MIC, broth-microdilution (CLSI VET01-A4), strain PM 6267. The note with it: Pasteurella multocida strain PM 6267, broth-microdilution; unit assumed. Here is the method: (§1) For example, representative compounds were tested against ***, Mannheimia haemolytica and Pasteurella multocida, using the conventional broth-dilution assay.
(§2) The Minimum inhibitory concentrations (MIC) of compounds according to the invention for a number of veterinary bacterial pathogens were determined by the broth-microdilution method according to CLSI document VET01-A4.
(§3) Microdilution trays containing a doubling dilution series of the test compound were used for the tests. The MIC results were interpreted according to the CLSI documents VET01-S3. The lowest concentration of compound at which no visible growth (i.e. no turbidity) detected by the unaided eye was recorded as the MIC.

The test system of test [2] is Mannheimia haemolytica MH 13093 (XB0472-6014.1, BRD field isolate). Briefly: MIC, broth-microdilution (CLSI VET01-A4), strain MH 13093. To be noted: Mannheimia haemolytica strain MH 13093, broth-microdilution; unit assumed. As for the experimental part:
as §1, §2, §3

Test [3] relates to Mannheimia haemolytica MH 13065 (XB0446-6003.9, BRD field isolate). Briefly: MIC, broth-microdilution (CLSI VET01-A4), strain MH 13065. The note with it: Mannheimia haemolytica strain MH 13065, broth-microdilution; unit assumed. Here is the method:
as §1, §2, §3
A general note: Broth dilution looks for growth in wells or tubes with falling amounts of substance.

Test [4] relates to Mannheimia haemolytica MH 6374 (ATCC 33396, reference strain). Briefly: MIC, broth-microdilution (CLSI VET01-A4), strain MH 6374. The note with it: Mannheimia haemolytica strain MH 6374, broth-microdilution; unit assumed. Here is the method: as §1, §2, §3
Test [5] relates to Pasteurella multocida PM 12080 (IV102277-0093, BRD field isolate). Briefly: MIC, broth-microdilution (CLSI VET01-A4), strain PM 12080. To be noted: Pasteurella multocida strain PM 12080, broth-microdilution; unit assumed. Here is the method:
as §1, §2, §3

Test [6] deals with Mannheimia haemolytica MH 12587 (1071, BRD field isolate, macrolide-resistance: erm+, E+). Briefly: MIC, broth-microdilution (CLSI VET01-A4), strain MH 12587. The note with it: Mannheimia haemolytica strain MH 12587, broth-microdilution; unit assumed. As for the experimental part:
as §1, §2, §3

For test [7], the system named is Mannheimia haemolytica MH 6357 (M7/2, reference strain, cattle infection strain). Briefly: MIC, broth-microdilution (CLSI VET01-A4), strain MH 6357. To be noted: Mannheimia haemolytica strain MH 6357, broth-microdilution; unit assumed. As for the experimental part: as §1, §2, §3
Test [8] concerns Mannheimia haemolytica MH 10720 (154, BRD field isolate). Briefly: MIC, broth-microdilution (CLSI VET01-A4), strain MH 10720. The note with it: Mannheimia haemolytica strain MH 10720, broth-microdilution; unit assumed. Here is the method: as §1, §2, §3
Test [9] relates to Pasteurella multocida PM 10775 (080130003051, BRD field isolate). Briefly: MIC, broth-microdilution (CLSI VET01-A4), strain PM 10775. The note with it: Pasteurella multocida strain PM 10775, broth-microdilution; unit assumed. Here is the method: as §1, §2, §3

Values after ≈ are worked out from the molar mass of the structure shown.

Consider `CC(C)(C(NC(=O)c1ccc(C#Cc2ccc(CNC3CC3)cc2)cc1)C(=O)NO)[N+](=O)[O-]` (racemic) [Compound 218], for which, in [1], the MIC PM 6267 was 0.4 µg/mL (≈ 0.888 µM). The MIC MH 13093 in [2] was 0.4 µg/mL (≈ 0.888 µM). Further, in [3], the MIC MH 13065 turned out to be 0.4 µg/mL (≈ 0.888 µM). In test [4], this compound had an MIC MH 6374 of 0.4 µg/mL (≈ 0.888 µM). In addition, the MIC PM 12080 in test [5] is at most 0.1 µg/mL. In [6], this compound registered an MIC MH 12587 of 0.8 µg/mL (≈ 1.78 µM). In addition, in test [7], the MIC MH 6357 was 0.4 µg/mL (≈ 0.888 µM). Further, the MIC MH 10720 in [8] is at most 0.1 µg/mL.
For `C=CCNCc1cccc(C#Cc2ccc(C(=O)N[C@H](C(=O)NO)C(C)C)cc2)c1` [Compound 26], the MIC PM 6267 in test [1] amounted to 3.1 µg/mL (≈ 7.64 µM). Also, in test [2], the MIC MH 13093 was found to be 12.5 µg/mL (≈ 30.8 µM). This compound had an MIC MH 13065 in test [3] of 12.5 µg/mL (≈ 30.8 µM). The same compound had an MIC MH 6374 in test [4] of 6.3 µg/mL (≈ 15.5 µM). The MIC PM 10775 in [9] came out at 0.8 µg/mL (≈ 1.97 µM). In addition, the MIC PM 12080 in test [5] is 6.3 µg/mL (≈ 15.5 µM). In test [6], the MIC MH 12587 was determined as 25 µg/mL (≈ 61.7 µM). The MIC MH 6357 in test [7] was 12.5 µg/mL (≈ 30.8 µM). The same compound gave an MIC MH 10720 in [8] of 3.1 µg/mL (≈ 7.64 µM).
With `CC(C)[C@H](NC(=O)c1ccc(C#Cc2cccc(CNCC(C)(C)C)c2)cc1)C(=O)NO` [Compound 27], the MIC PM 6267 in test [1] is 3.1 µg/mL (≈ 7.12 µM). Besides, the MIC MH 13093 in test [2] turned out to be 25 µg/mL (≈ 57.4 µM). The compound further displayed an MIC MH 13065 in test [3] of 25 µg/mL (≈ 57.4 µM). In addition, in [4], the MIC MH 6374 turned out to be 12.5 µg/mL (≈ 28.7 µM). In test [9], this compound displayed an MIC PM 10775 of 0.8 µg/mL (≈ 1.84 µM). In test [5], this compound showed an MIC PM 12080 of 6.3 µg/mL (≈ 14.5 µM). This compound also returned an MIC MH 12587 in test [6] of 25 µg/mL (≈ 57.4 µM). For the same compound, the MIC MH 6357 in test [7] amounted to 12.5 µg/mL (≈ 28.7 µM). The MIC MH 10720 in [8] was 3.1 µg/mL (≈ 7.12 µM).
In test [1], `CC(C)[C@H](NC(=O)c1ccc(C#Cc2cccc(CN3CCOCC3)c2)cc1)C(=O)NO` [Compound 32] came in with an MIC PM 6267 of 1.6 µg/mL (≈ 3.67 µM). In [2], this compound gave an MIC MH 13093 of 6.3 µg/mL (≈ 14.5 µM). This compound had an MIC MH 13065 in [3] of 6.3 µg/mL (≈ 14.5 µM). The MIC MH 6374 in [4] was determined as 6.3 µg/mL (≈ 14.5 µM). In addition, in test [9], the MIC PM 10775 was found to be 0.4 µg/mL (≈ 0.918 µM). The compound further yielded an MIC PM 12080 in test [5] of 3.1 µg/mL (≈ 7.12 µM). In addition, in test [6], the MIC MH 12587 turned out to be 12.5 µg/mL (≈ 28.7 µM). Moreover, the MIC MH 6357 in test [7] was determined as 6.3 µg/mL (≈ 14.5 µM). In addition, in [8], the MIC MH 10720 is 3.1 µg/mL (≈ 7.12 µM).
In the case of `CC(C)[C@H](NC(=O)c1ccc(C#Cc2cccc(CNCc3ccccc3)c2)cc1)C(=O)NO` [Compound 40], in test [1], the MIC PM 6267 came to 3.1 µg/mL (≈ 6.8 µM). The same compound had an MIC MH 13093 in test [2] of 6.3 µg/mL (≈ 13.8 µM). In test [3], this compound gave an MIC MH 13065 of 6.3 µg/mL (≈ 13.8 µM). The same compound returned an MIC MH 6374 in test [4] of 3.1 µg/mL (≈ 6.8 µM). The compound also gave an MIC PM 10775 in test [9] of 0.8 µg/mL (≈ 1.76 µM). For the same compound, the MIC PM 12080 in test [5] came to 6.3 µg/mL (≈ 13.8 µM). This compound also gave an MIC MH 12587 in [6] of 12.5 µg/mL (≈ 27.4 µM). In test [7], this compound displayed an MIC MH 6357 of 6.3 µg/mL (≈ 13.8 µM). In addition, in [8], the MIC MH 10720 was 6.3 µg/mL (≈ 13.8 µM).
Take `COc1ccc(CNCc2cccc(C#Cc3ccc(C(=O)N[C@H](C(=O)NO)C(C)C)cc3)c2)cc1` [Compound 43]: in test [1], the MIC PM 6267 was determined as 3.1 µg/mL (≈ 6.38 µM). In [2], the MIC MH 13093 was found to be 12.5 µg/mL (≈ 25.7 µM). In test [3], this compound returned an MIC MH 13065 of 6.3 µg/mL (≈ 13 µM). The compound further returned an MIC MH 6374 in [4] of 6.3 µg/mL (≈ 13 µM). Besides, the MIC PM 10775 in test [9] was determined as 0.4 µg/mL (≈ 0.824 µM). The MIC PM 12080 in [5] is 3.1 µg/mL (≈ 6.38 µM). Besides, the MIC MH 12587 in [6] turned out to be 12.5 µg/mL (≈ 25.7 µM). In addition, in test [7], the MIC MH 6357 was 6.3 µg/mL (≈ 13 µM). In addition, in [8], the MIC MH 10720 stood at 1.6 µg/mL (≈ 3.3 µM).
In [1], `CC(C)[C@H](NC(=O)c1ccc(C#Cc2cccc(CNCc3ccncc3)c2)cc1)C(=O)NO` [Compound 46] registered an MIC PM 6267 of 1.6 µg/mL (≈ 3.5 µM). This compound yielded an MIC MH 13093 in [2] of 6.3 µg/mL (≈ 13.8 µM). Also, the MIC MH 13065 in test [3] stood at 6.3 µg/mL (≈ 13.8 µM). The compound also had an MIC MH 6374 in [4] of 6.3 µg/mL (≈ 13.8 µM). Further, the MIC PM 10775 in test [9] was 0.2 µg/mL (≈ 0.438 µM). The same compound showed an MIC PM 12080 in test [5] of 6.3 µg/mL (≈ 13.8 µM). The same compound registered an MIC MH 12587 in [6] of 12.5 µg/mL (≈ 27.4 µM). In test [7], this compound gave an MIC MH 6357 of 6.3 µg/mL (≈ 13.8 µM). Moreover, the MIC MH 10720 in test [8] amounted to 1.6 µg/mL (≈ 3.5 µM).
In [1], `C=CCNCc1cccc(C#Cc2ccc(C(=O)N[C@H](C(=O)NO)[C@@H](C)CC)cc2)c1` [Compound 49] displayed an MIC PM 6267 of 3.1 µg/mL (≈ 7.39 µM). In [2], the MIC MH 13093 stood at 12.5 µg/mL (≈ 29.8 µM). The MIC MH 13065 in test [3] was 12.5 µg/mL (≈ 29.8 µM). In [4], this compound returned an MIC MH 6374 of 12.5 µg/mL (≈ 29.8 µM). The MIC PM 10775 in test [9] worked out at 0.8 µg/mL (≈ 1.91 µM). Besides, the MIC PM 12080 in [5] was determined as 12.5 µg/mL (≈ 29.8 µM). The MIC MH 12587 in [6] turned out to be 25 µg/mL (≈ 59.6 µM). For the same compound, the MIC MH 6357 in test [7] came out at 12.5 µg/mL (≈ 29.8 µM). Further, the MIC MH 10720 in test [8] was 6.3 µg/mL (≈ 15 µM).
With `O=C(N[C@@H](CO)C(=O)NO)c1ccc(C#Cc2ccc(CNC3CC3)cc2)cc1` [Compound 71], in [1], the MIC PM 6267 is 0.2 µg/mL (≈ 0.508 µM). Besides, in test [2], the MIC MH 13093 was 3.1 µg/mL (≈ 7.88 µM). The MIC MH 13065 in test [3] turned out to be 0.8 µg/mL (≈ 2.03 µM). Besides, the MIC MH 6374 in test [4] was 0.8 µg/mL (≈ 2.03 µM). This compound gave an MIC PM 10775 in test [9] of at most 0.1 µg/mL. For the same compound, the MIC PM 12080 in [5] is 0.4 µg/mL (≈ 1.02 µM). This compound also had an MIC MH 12587 in [6] of 1.6 µg/mL (≈ 4.07 µM). Also, the MIC MH 6357 in test [7] is 1.6 µg/mL (≈ 4.07 µM). The compound also showed an MIC MH 10720 in test [8] of 0.4 µg/mL (≈ 1.02 µM).
